This note sets out measurements from patent publication US8569298B2, “Pyridine compounds” (Astrazeneca AB, priority 2008, dated 2013).

This experiment addresses T1, FAK enzyme (6 His tagged kinase domain, GenBank NP—722560) (Homo sapiens, UniProt Q05397).
T1 construct: 6 His; made in house; host or cells: insect cell culture infected with baculovirus
Nature of the experiment: In vitro enzyme assay (a): sandwich ELISA of FAK tyrosine kinase activity on polyGAT peptide, TMB colorimetric endpoint. It counts as biochemical. The conditions noted are these: in vitro Enzyme Assay test (a); ATP at Km; geometric mean of n > 1 measurements, values marked * tested once. The procedure:
(a) In Vitro Enzyme Assay
A sandwich ELISA assay with a 3,3′,5,5′-tetramethyl benzidine (TMB) colorimetric endpoint was used in order to determine the level of effect of selected compounds on inhibition of FAK protein tyrosine kinase enzyme activity. A synthetic tyrosine containing peptide is coated onto a plastic surface, the level of phosphorylation of these tyrosine residues by the kinase enzyme in the presence of inhibitors is measured using an antibody that binds specifically to phosphorylated tyrosine residues. The amount of antibody bound to substrate is proportional to the level of enzyme catalysis.
Assay Protocol to Identify Inhibitors of Focal Adhesion Kinase (FAK).
A PlateMate Plus™ 384 automated liquid handling unit with a 100 μl disposable tip head was used to make all the non compound reagent additions and a Tecan 384PW plate washer with 384 head was used for all wash steps. Initially Matrix 384 well polystyrene plates (Cat #:4311) were coated with 40 μl/well of a 0.0375 mg/ml solution of synthetic poly peptide (polyGAT, Sigma Cat #:P3899) dissolved in phosphate buffered saline (PBS). Plates were stored overnight at 4° C. Immediately before use the coating solution was aspirated out and each well washed with 2×100 μl of PBS+0.05% Tween 20. To remove surplus phosphate, the wells were then washed with 2×100 μl 50 mM HEPES buffer pH 7.4. Plates were blotted dry before the addition of compounds. Compounds were tested over a 12 point dose range, a Labcyte Echo 550 was used to dispense compounds in nl volumes and back fill with DMSO. The final concentration of compound in the assay was dependent on the starting concentration of compound. For a 10 mM stock compound the final assay dose ranged from 100 μM down to […]. Control wells containing 120 nl DMSO (Max) or 120 nl of 10 mM staurosporine (LC Laboratories, Boston, USA Cat #: S-9300) (Min) were included in each plate. 10 ul of 5% dimethyl sulfoxide v/v (DMSO, Fisher Scientific) was added to each well immediately prior to addition of 10 μl of a co-factor solution containing 80 mM MgCl2 (Sigma Cat #: M1028); 80 mM MnCl2 (Sigma Cat #: M1787); ATP at a concentration calculated to enable the initial reaction velocity to progress at half the maximum velocity (Km for ATP) (Sigma Cat #:A7699). A final addition of 20 μl of enzyme solution containing 100 mM HEPES pH7.4; 0.2 mM sodium vanadate (Sigma Cat #:S6508); 0.2 g/l bovine serum albumin (BSA, Sigma Cat #: A7888); 0.2 mM dithioreitol (Sigma Cat #: 5545); 0.1% Triton X100 (Sigma Cat #:X100); FAK enzyme (20 μl/ml) was made to each well to start the assay running FAK enzyme was generated from an insect culture infected with baculo virus containing the DNA sequence encoding the 6 His tagged kinase domain (GenBank NP_722560).
Plates were left at room temperature for 25 minutes before 10 μl of 500 mM ethylenediaminetetraacetic acid (EDTA) was added to stop the assay and the wells were immediately washed 3×100 μl with PBS+0.05% Tween 20. A 4G10 antibody (Millipore Cat #: 16-105; 16-184) with a directly conjugated horse radish peroxidase (HRP) was used to detect the phosphorylation of the substrate by the FAK. 40 μl of PBS+0.05% Tween 20 containing 0.5% BSA and 0.1 μl/ml antibody was added to each well and left for 1 hour at room temperature to allow the antibody to bind. After this period the wells were again washed with 3×100 μl of PBS+0.05% Tween 20. TMB (Sigma Cat #: T2885) was used as a substrate for the HRP. Phosphate-citrate buffer was made up using capsules provided by Sigma (Cat #: P4922) following the manufacturers guidelines. TMB was dissolved at a concentration of 1 mg/ml in DMSO and let down to a final concentration of 0.05 mg/ml with the phosphor-citrate buffer. 40 μl of the TMB solution was added to each assay well and left for 30 minutes for the blue colour to develop. […]
(In general: An ELISA detects its analyte on a solid surface through an enzyme-linked reagent.)

T1 sequence (Q05397 422-680 limits assumed): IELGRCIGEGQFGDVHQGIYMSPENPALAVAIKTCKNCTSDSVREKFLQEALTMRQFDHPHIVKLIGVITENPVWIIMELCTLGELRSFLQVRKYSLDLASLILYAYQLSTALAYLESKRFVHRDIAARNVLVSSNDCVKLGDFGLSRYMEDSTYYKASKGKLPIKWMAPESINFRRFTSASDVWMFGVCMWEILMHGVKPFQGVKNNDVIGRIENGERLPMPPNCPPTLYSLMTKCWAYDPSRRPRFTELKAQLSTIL

`CNC(=O)c1ccccc1Nc1cc(Nc2cnn(C3CCOCC3)c2)ncc1Cl` [Example 3.15, 2-[[5-chloro-2-[(1-tetrahydropyran-4-ylpyrazol-4-yl)amino]-4-pyridyl]amino]-N-methyl-benzamide] yielded an IC50 of 670 nM. With `CNC(=O)c1ccccc1Nc1cc(Nc2cc(C)[nH]n2)ncc1Cl` [Example 3.16, 2-[[5-Chloro-2-[(5-methyl-1H-pyrazol-3-yl)amino]pyridin-4-yl]amino]-N-methylbenzamide], the IC50 was 93 nM. The result for `CNC(=O)c1ccccc1Nc1cc(Nc2cc(C3CC3)[nH]n2)ncc1Cl` [Example 3.17, 2-[[5-chloro-2-[(5-cyclopropyl-1H-pyrazol-3-yl)amino]-4-pyridyl]amino]-N-methyl-benzamide] reads 93 nM; that for `CNC(=O)c1ccccc1Nc1cc(Nc2cn(C)cn2)ncc1Cl` [Example 3.18, 2-[[5-chloro-2-[(1-methylimidazol-4-yl)amino]-4-pyridyl]amino]-N-methyl-benzamide], 275 nM; that for `CNC(=O)c1ccccc1Nc1cc(Nc2cnn(C3CCNCC3)c2)ncc1Cl` [Example 3.19, 2-[[5-Chloro-2-[[1-(4-piperidyl)pyrazol-4-yl]amino]-4-pyridyl]amino]-N-methyl-benzamide], 686 nM. Regarding `CON(C)C(=O)c1ccccc1Nc1cc(Nc2cnn(C3CCN(C)CC3)c2)ncc1Cl` [Example 3.20, 2-[[5-Chloro-2-[[1-(1-methyl-4-piperidyl)pyrazol-4-yl]amino]-4-pyridyl]amino]-N-methoxy-N-methyl-benzamide], the half-maximal inhibitory concentration (IC50) came to 1230 nM. The result for `CON(C)C(=O)c1ccccc1Nc1cc(Nc2cn(C)nc2C)ncc1Cl` [Example 3.21, 2-[[5-chloro-2-[(1,3-dimethylpyrazol-4-yl)amino]-4-pyridyl]amino]-N-methoxy-N-methyl-benzamide] reads 324 nM; that for `Cc1nn(C)cc1Nc1cc(Nc2cccc3c2C(=O)N(C)CCO3)c(Cl)cn1` [Example 3.22, 6-[[5-Chloro-2-[(1,3-dimethylpyrazol-4-yl)amino]-4-pyridyl]amino]-4-methyl-2,3-dihydro-1,4-benzoxazepin-5-one], 25 nM. The result for `CN1CCc2cccc(Nc3cc(Nc4cnn(CC(=O)N5CCCC5)c4)ncc3Cl)c2C1=O` [Example 3.23, 8-[[5-Chloro-2-[[1-(2-oxo-2-pyrrolidin-1-yl-ethyl)pyrazol-4-yl]amino]-4-pyridyl]amino]-2-methyl-3,4-dihydroisoquinolin-1-one] reads 20 nM. As for `COCCNC(=O)Cn1cc(Nc2cc(Nc3cccc4c3C(=O)N(C)CC4)c(Cl)cn2)cn1` [Example 3.24, 2-[4-[[5-chloro-4-[(2-methyl-1-oxo-3,4-dihydroisoquinolin-8-yl)amino]-2-pyridyl]amino]pyrazol-1-yl]-N-(2-methoxyethyl)acetamide], the figure is 18 nM; as for `COCCN(C)C(=O)Cn1cc(Nc2cc(Nc3cccc4c3C(=O)N(C)CC4)c(Cl)cn2)cn1` [Example 3.25, 2-[4-[[5-chloro-4-[(2-methyl-1-oxo-3,4-dihydroisoquinolin-8-yl)amino]-2-pyridyl]amino]pyrazol-1-yl]-N-(2-methoxyethyl)-N-methyl-acetamide], 27 nM; as for `CN(C)CCNC(=O)Cn1cc(Nc2cc(Nc3cccc4c3C(=O)N(C)CC4)c(Cl)cn2)cn1` [Example 3.26, 2-[4-[[5-chloro-4-[(2-methyl-1-oxo-3,4-dihydroisoquinolin-8-yl)amino]-2-pyridyl]amino]pyrazol-1-yl]-N-(2-dimethylaminoethyl)acetamide], 38 nM.

`CN1CCc2cccc(Nc3cc(Nc4cnn(CC(=O)N5CCOCC5)c4)ncc3Cl)c2C1=O` [Example 3.27, 8-[[5-chloro-2-[[1-(2-morpholino-2-oxo-ethyl)pyrazol-4-yl]amino]-4-pyridyl]amino]-2-methyl-3,4-dihydroisoquinolin-1-one] displayed an IC50 of 11 nM.

By IC50 is commonly meant the concentration needed to halve the response being measured. Lower therefore signals inhibition by little substance.
